Experimental data taken from PMC7050258, “Inhibition of MGAT2 modulates fat‐induced gut peptide release and fat intake in normal mice and ameliorates obesity and diabetes in ob/ob mice fed on a high‐fat diet” (FEBS Open Bio, 2020).
Values joined by “and” are separate entries in the source; they are usually repeats but may differ in a detail not shown here. Equal entries are not always repeated.

Assays:
C57BL/6J mice = experiment: Food choice test (HFD vs LFD); type: in vivo, mouse; conditions: overnight, CpdB 10 mg/kg oral, liraglutide 0.04 mg/kg sc
Protocol: The choice between HFD (D12451; Research Diets, Inc.) and low‐fat diet (LFD, 10% kcal fat, 3.8 kcal·g^−1; D124510B; Research Diets, Inc.) was assessed in C57BL/6J mice. Following habituation to normal chow, HFD and LFD were presented in separate containers simultaneously, and overnight food intake of each diet was monitored. The mice were divided into groups based on the data of food intake and body weight. Then, vehicle or CpdB (10 mg·kg^−1) was orally administered, and the overnight food intake of each diet was monitored. CpdB was suspended in 0.5% methylcellulose. As a positive control, liraglutide (0.04 mg·kg^−1) dissolved in 10% DMSO/saline was subcutaneously administered.

DGAT2 human = biological target: T1, DGAT2 human (Homo sapiens, UniProt Q96PD7); experiment: in vitro inhibitory activity against DGAT2; type: biochemical
T1 sequence (Q96PD7 1-388): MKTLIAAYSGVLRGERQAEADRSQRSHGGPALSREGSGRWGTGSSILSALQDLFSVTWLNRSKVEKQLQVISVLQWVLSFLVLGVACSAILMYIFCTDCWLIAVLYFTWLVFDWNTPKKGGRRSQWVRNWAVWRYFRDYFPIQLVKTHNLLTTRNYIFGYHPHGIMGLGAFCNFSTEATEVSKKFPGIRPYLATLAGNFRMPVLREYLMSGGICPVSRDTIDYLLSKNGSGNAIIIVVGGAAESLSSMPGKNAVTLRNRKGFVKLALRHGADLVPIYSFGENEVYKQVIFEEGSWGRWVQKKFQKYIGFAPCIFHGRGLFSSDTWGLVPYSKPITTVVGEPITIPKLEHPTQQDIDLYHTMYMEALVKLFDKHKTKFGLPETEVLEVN
Protocol: (§1) CpdB, CpdA, and pioglitazone were synthesized at Takeda Pharmaceutical Co., Ltd. (Tokyo, Japan). The in vitro inhibitory activities of CpdB and CpdA against MGAT2 and related acyltransferases (DGAT1, DGAT2, and ACAT1) were evaluated as described in our previous report 17 and patent application 19. Liraglutide (Victoza) was purchased from Novo Nordisk Pharma Ltd. (Bagsvaerd, Denmark). All other chemicals were of analytical grade and purchased from Wako Pure Chemicals (Osaka, Japan).

DGAT1 human = biological target: T2, DGAT1 human (Homo sapiens, UniProt O75907); experiment: in vitro inhibitory activity against DGAT1; type: biochemical
T2 sequence (O75907 1-488): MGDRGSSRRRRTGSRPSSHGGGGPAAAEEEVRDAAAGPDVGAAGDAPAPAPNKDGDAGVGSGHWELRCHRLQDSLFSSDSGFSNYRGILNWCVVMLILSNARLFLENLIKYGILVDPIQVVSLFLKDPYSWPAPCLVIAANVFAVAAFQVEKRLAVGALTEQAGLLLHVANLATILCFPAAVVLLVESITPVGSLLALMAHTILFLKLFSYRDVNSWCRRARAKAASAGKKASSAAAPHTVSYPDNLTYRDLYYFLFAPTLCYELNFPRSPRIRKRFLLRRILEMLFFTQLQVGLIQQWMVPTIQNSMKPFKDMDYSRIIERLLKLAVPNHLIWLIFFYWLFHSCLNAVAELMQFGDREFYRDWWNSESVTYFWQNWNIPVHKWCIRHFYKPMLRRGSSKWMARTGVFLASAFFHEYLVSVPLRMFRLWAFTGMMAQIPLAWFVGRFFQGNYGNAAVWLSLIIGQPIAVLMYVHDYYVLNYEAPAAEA
Protocol: as §1

ACAT1 human = biological target: T3, ACAT1 human (Homo sapiens, UniProt P35610); experiment: in vitro inhibitory activity against ACAT1; type: biochemical
T3 sequence (P35610 1-550): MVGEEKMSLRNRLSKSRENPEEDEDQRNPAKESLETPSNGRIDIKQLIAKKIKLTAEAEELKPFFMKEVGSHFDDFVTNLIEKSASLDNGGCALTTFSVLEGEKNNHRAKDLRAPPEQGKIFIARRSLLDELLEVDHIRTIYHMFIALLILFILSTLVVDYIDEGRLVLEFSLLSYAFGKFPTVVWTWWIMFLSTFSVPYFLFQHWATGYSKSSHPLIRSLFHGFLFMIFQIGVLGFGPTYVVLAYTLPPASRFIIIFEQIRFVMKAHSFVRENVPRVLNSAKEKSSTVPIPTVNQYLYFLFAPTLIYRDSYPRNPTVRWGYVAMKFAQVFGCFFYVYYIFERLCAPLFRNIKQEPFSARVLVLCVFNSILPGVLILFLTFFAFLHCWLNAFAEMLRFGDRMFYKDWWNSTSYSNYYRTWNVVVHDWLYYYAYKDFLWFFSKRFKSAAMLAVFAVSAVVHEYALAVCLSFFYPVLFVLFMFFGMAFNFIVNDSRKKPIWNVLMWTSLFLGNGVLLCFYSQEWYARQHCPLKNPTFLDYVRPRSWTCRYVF
Protocol: as §1

mouse MGAT2 = mouse MGAT2 (Mus musculus, UniProt Q80W94); experiment: in vitro inhibitory activity against MGAT2 (mouse); type: biochemical
Protocol: as §1

mouse MGAT2, sequence (Q80W94 whole entry): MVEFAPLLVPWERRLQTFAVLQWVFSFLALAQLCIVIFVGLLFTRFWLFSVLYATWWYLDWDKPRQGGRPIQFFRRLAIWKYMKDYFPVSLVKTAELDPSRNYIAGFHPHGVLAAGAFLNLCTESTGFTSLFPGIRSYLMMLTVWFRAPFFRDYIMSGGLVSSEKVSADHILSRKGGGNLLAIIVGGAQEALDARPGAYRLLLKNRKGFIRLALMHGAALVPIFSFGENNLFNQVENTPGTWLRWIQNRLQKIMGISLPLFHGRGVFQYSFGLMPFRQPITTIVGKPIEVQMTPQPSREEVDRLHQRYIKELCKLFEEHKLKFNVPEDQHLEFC

## CC(C)(OC(=O)N[C@H]1CC[C@H](OC(=O)N2CCc3cc(S(=O)(=O)Nc4c(F)cc(Cl)cc4F)cc(N4CCCC4=O)c32)CC1)C(F)(F)F [CpdB]
C57BL/6J mice; mean, N=5
  Food intake, energy intake of HFD, AVE: 9.74 kcal
  Food intake, energy intake of low-fat diet, AVE: 0.16 kcal
  Food intake, total energy intake, AVE: 9.90 kcal
C57BL/6J mice; single animal values
  Food intake, energy intake of HFD, individual animal: 9.96 kcal and 11.47 kcal and 8.41 kcal and 8.88 kcal
  Food intake, energy intake of low-fat diet, individual animal: 0.23 kcal and 0.00 kcal and 0.34 kcal
  Food intake, total energy intake, individual animal: 10.19 kcal and 11.47 kcal and 8.41 kcal and 9.23 kcal
DGAT2 human
  IC50: > 30000 nM
DGAT1 human
  IC50: 2500 nM
ACAT1 human
  IC50: > 30000 nM
Mouse MGAT2
  IC50: 0.85 nM
